Among the data in US10214546B2, “Btk inhibitors” (MERCK SHARP & DOHME CORP., priority 2014, dated 2019) are IC50 values, retold here.

Read-outs that look alike come from different tables or passages of the source.

Test [1] deals with adenosine uptake into HeLa cells. Nature of the test: [3H]Adenosine uptake assay in HeLa cells. It counts as cell-based. The following applies: [3H]adenosine accumulation in HeLa cells, compound range 10 μM to 0.032 nM, read-out: ADU inhibition IC50. The gist of the method:
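IC50 came from a 4-parameter fit of counts per second over a ten-point, 1:3 titration (final 10 µM down to […]). Compound was applied 30 min at ambient temperature in HBSS/5% FBS before a 500 nM [3H]adenosine solution was added; uptake ran 60 min, read by Cytostar-T proximity scintillation.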

Test [2] deals with BTK enzyme (recombinant full-length BTK, hBTK) (Homo sapiens (Human), UniProt Q06187). Nature of the test: BTK enzymatic activity LANCE TR-FRET assay. It counts as biochemical. The following applies: 50 pM hBTK, 25 μM ATP, 2 μM biotin-A5-peptide; compound range 1 μM to 0.017 nM; read-out: BTK binding IC50. For orientation: Time-resolved FRET reads energy transfer from a long-lived donor to a nearby acceptor.
Sequence of BTK enzyme (recombinant full-length BTK, hBTK) (Q06187 whole entry): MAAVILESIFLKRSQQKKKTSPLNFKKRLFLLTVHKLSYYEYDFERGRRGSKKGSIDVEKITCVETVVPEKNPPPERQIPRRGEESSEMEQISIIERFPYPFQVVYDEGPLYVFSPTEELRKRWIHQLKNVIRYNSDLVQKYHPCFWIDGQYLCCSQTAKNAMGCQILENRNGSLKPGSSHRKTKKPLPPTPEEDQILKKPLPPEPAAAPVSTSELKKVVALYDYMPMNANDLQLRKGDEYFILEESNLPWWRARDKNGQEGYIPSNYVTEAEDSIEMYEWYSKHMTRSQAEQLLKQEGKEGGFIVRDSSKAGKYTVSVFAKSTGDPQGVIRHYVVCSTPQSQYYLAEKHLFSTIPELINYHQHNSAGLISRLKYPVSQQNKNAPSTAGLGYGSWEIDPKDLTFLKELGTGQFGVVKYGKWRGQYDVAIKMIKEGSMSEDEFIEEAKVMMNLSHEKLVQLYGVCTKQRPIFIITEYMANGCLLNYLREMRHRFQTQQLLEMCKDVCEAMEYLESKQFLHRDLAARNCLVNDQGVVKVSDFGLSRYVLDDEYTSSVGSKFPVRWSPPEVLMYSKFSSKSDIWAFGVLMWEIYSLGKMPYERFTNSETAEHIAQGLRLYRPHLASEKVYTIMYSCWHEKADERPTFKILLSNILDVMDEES

The IC50 is the concentration that inhibits the measured activity by half. Turning to `CC(O)(c1ccc(-c2nc([C@@H]3CC[C@H]4CCC(=O)N4C3)n3ccnc(N)c23)cc1)C1CC2CCC1CC2` (stereo partly drawn) [Example 150, (6R,8aS)-6-{8-amino-1-[4-(1-bicyclo[2.2.2]oct-2-yl-1-hydroxyethyl)phenyl]imidazo[1,5-a]pyrazin-3-yl}hexahydroindolizin-3(2H)-one], the IC50 in test [1] came out at 2410 nM; in test [2], 1.6 nM.

Take `CC(O)(c1ccc(-c2nc([C@@H]3CC[C@H]4CCC(=O)N4C3)n3ccnc(N)c23)cc1)c1cc(C(F)(F)F)ccc1F` (stereo partly drawn) [Example 151, (6R,8aS)-6-[8-amino-1-(4-{1-[2-fluoro-5-(trifluoromethyl)pheny]-1-hydroxyethyl}phenyl)imidazo[1,5-a]pyrazin-3-yl]hexahydroindolizin-3(2H)-one]: the IC50 in test [1] is 2040 nM; in test [2] it was 12.1 nM.

Consider `C[C@@](O)(c1ccc(-c2nc([C@@H]3CC[C@H]4CCC(=O)N4C3)n3ccnc(N)c23)cc1)c1cccc(-n2ccnc2)c1` [Example 152, (6R,8aS)-6-[8-amino-1-(4-{(1R)-1-hydroxy-1-[3-(1H-imidazol-1-yl)phenyl]ethyl}phenyl)imidazo[1,5-a]pyrazin-3-yl]hexahydroindolizin-3(2H)-one], for which the IC50 in test [1] (Homo sapiens, HeLa) turned out to be 2960 nM; in test [2], 39.1 nM.

On to `C[C@](O)(c1ccc(-c2nc([C@@H]3CC[C@H]4CCC(=O)N4C3)n3ccnc(N)c23)cc1)c1cccc(-n2ccnc2)c1` [Example 153, (6R,8aS)-6-[8-amino-1-(4-{(1S)-1-hydroxy-1-[3-(1H-imidazol-1-yl)phenyl]ethyl}phenyl)imidazo[1,5-a]pyrazin-3-yl]hexahydroindolizin-3(2H)-one], for which the IC50 in test [1] (Homo sapiens, HeLa) came out at 1960 nM; in test [2], 1000 nM.

As to `C[C@](O)(c1ccc(-c2nc([C@@H]3CC[C@H]4CCC(=O)N4C3)n3ccnc(N)c23)cc1)c1ccnc(C(F)(F)F)c1` [Example 154, (6R,8aS)-6-[8-amino-1-(4-{(1S)-1-hydroxy-1-[2-(trifluoromethyl)pyridin-4-yl]ethyl}phenyl)imidazo [1,5-a]pyrazin-3-yl]hexahydroindolizin-3(2H)-one], the IC50 in test [1] (Homo sapiens, HeLa) was determined as 464 nM; in test [2], 1000 nM.

In the case of `C[C@@](O)(c1ccc(-c2nc([C@@H]3CC[C@H]4CCC(=O)N4C3)n3ccnc(N)c23)cc1)c1ccnc(C(F)(F)F)c1` [Example 155, (6R,8aS)-6-[8-amino-1-(4-{(1R)-1-hydroxy-1-[2-(trifluoromethyl)pyridin-4-yl]ethyl}phenyl)imidazo [1,5-a]pyrazin-3-yl]hexahydroindolizin-3(2H)-one], the concentration for half-maximal inhibition (IC50) in test [1] (Homo sapiens, HeLa) amounted to 2750 nM; in test [2], 858 nM.

Regarding `C[C@@](O)(c1ccc(-c2nc([C@H]3CC[C@@H]4COCC(=O)N4C3)n3ccnc(N)c23)cc1)c1cccc(C(F)(F)F)c1` [Example 156, (7S,9aR)-7-(8-amino-1-(4-{(1R)-1-hydroxy-1-[3-(trifluoromethyl)pheny]ethyl}phenyl)imidazo [1,5-a]pyrazin-3-yl]hexahydropyrido[2,1-c][1,4]oxazin-4(3H)-one], the IC50 in test [1] (Homo sapiens, HeLa) worked out at 1470 nM; in test [2] it was 72.3 nM.

As for `C[C@@](O)(c1ccc(-c2nc([C@@H]3CC[C@H]4COCC(=O)N4C3)n3ccnc(N)c23)cc1)c1cccc(C(F)(F)F)c1` [Example 157, (7R,9aS)-7-[8-amino-1-(4-{(1R)-1-hydroxy-1-[3-(trifluoromethyl)phenyl]ethyl}phenyl)imidazo [1,5-a]pyrazin-3-yl]hexahydropyrido[2,1-c][1,4)oxazin-4(3H)-one], the IC50 in test [1] (Homo sapiens, HeLa) was determined as 2220 nM; in test [2], 1.9 nM.

As to `C[C@@](O)(c1ccc(-c2nc([C@@H]3CC[C@H]4CCC(=O)N4C3)n3c(F)cnc(N)c23)cc1)c1cccc(C(F)(F)F)c1` [Example 158, (6R,8aS)-6-[8-amino-5-fluoro-1-(4-{(1R)-1-hydroxy-1-[3-(trifluoromethyl)phenyl]ethyl}phenyl)imidazo [1,5-a]pyrazin-3-yl]hexahydroindolizin-3(2H)-one], the IC50 in test [1] (Homo sapiens, HeLa) worked out at 6300 nM; in test [2], 4.7 nM.
